Reference: patent US20230340011A1 (Asteroid Therapeutics, priority 2022, published 2023)

Target: SREBP-2 (Homo sapiens (Human), UniProt Q12772)
Experiment: In vitro assay SREBP-2: PathHunter U2OS SREBP-2 Nuclear Translocation Cell Line, U18666A-stimulated
Type: cell-based
Conditions: PathHunter U2OS SREBP-2 nuclear translocation cells, U18666A 10 μM, overnight (16 hours)

| Compound | IC50 |
| --- | --- |
| C[C@H](CCC(=O)N1CCN(C2CC2)CC1)[C@H]1CC[C@H]2[C@@H]3CC=C4C[C@@H](O)CC[C@]4(C)[C@H]3CC[C@]12C [Example 558, (4R)-4-[(1R,3aS,3bS,7S,9aR,9bS,11aR)-7-hydroxy-9a,11a-dimethyl-1H,2H,3H,3aH,3bH,4H,6H,7H,8H,9H,9aH,9bH,10H,11H,11aH-cyclopenta[a]phenanthren-1-yl]-1-(4-cyclopropylpiperazin-1-yl)pentan-1-one] | < 250 nM |
| Cc1cccnc1OC[C@@H](C)[C@H]1CC[C@H]2[C@@H]3CC=C4C[C@@H](O)CC[C@]4(C)[C@H]3CC[C@]12C [Example 443, (3S,8S,9S,10R,13S,14S,17R)-10,13-dimethyl-17-((S)-1-((3-methylpyridin-2-yl)oxy)propan-2-yl)-2,3,4,7,8,9,10,11,12,13,14,15,16,17-tetradecahydro-1H-cyclopenta[a]phenanthren-3-ol] | < 250 nM |
| C[C@H](CCC(=O)N1CCC(C(NS(C)(=O)=O)C(F)(F)F)CC1)[C@H]1CC[C@H]2[C@@H]3CC=C4C[C@@H](O)CC[C@]4(C)[C@H]3CC[C@]12C (stereo partly drawn) [Example 476, N-(2,2,2-trifluoro-1-(1-((R)-4-((3S,8S,9S,10R,13R,14S,17R)-3-hydroxy-10,13-dimethyl-2,3,4,7,8,9,10,11,12,13,14,15,16,17-tetradecahydro-1H-cyclopenta[a]phenanthren-17-yl)pentanoyl)piperidin-4-yl)ethyl)methanesulfonamide] | < 250 nM |
| C[C@H](CCC(=O)N1CC[C@H](NC(=O)N(C)C)C1)[C@H]1CC[C@H]2[C@@H]3CC=C4C[C@@H](O)CC[C@]4(C)[C@H]3CC[C@]12C [Example 534, 3-((S)-1-((R)-4-((3S,8S,9S,10R,13R,14S,17R)-3-hydroxy-10,13-dimethyl-2,3,4,7,8,9,10,11,12,13,14,15,16,17-tetradecahydro-1H-cyclopenta[a]phenanthren-17-yl)pentanoyl)pyrrolidin-3-yl)-1,1-dimethylurea] | < 250 nM |
| C[C@H](CCC(=O)N1CCC(C)(CN2CCOC(C)(C)C2=O)CC1)[C@H]1CC[C@H]2[C@@H]3CC=C4C[C@@H](O)CC[C@]4(C)[C@H]3CC[C@]12C [Example 523, 4-((1-((R)-4-((3S,8S,9S,10R,13R,14S,17R)-3-hydroxy-10,13-dimethyl-2,3,4,7,8,9,10,11,12,13,14,15,16,17-tetradecahydro-1H-cyclopenta[a]phenanthren-17-yl)pentanoyl)-4-methylpiperidin-4-yl)methyl)-2,2-dimethylmorpholin-3-one] | < 250 nM |
| Cc1noc(C(=O)N[C@H]2CCN(C(=O)CC[C@@H](C)[C@H]3CC[C@H]4[C@@H]5CC=C6C[C@@H](O)CC[C@]6(C)[C@H]5CC[C@]34C)C2)n1 [Example 527, N—((S)-1-((R)-4-((3S,8S,9S,10R,13R,14S,17R)-3-hydroxy-10,13-dimethyl-2,3,4,7,8,9,10,11,12,13,14,15,16,17-tetradecahydro-1H-cyclopenta[a]phenanthren-17-yl)pentanoyl)pyrrolidin-3-yl)-3-methyl-1,2,4-oxadiazole-5-carboxamide] | < 250 nM |
| CC(=O)N1CCC2(C1)CN(C(=O)CC[C@@H](C)[C@H]1CC[C@H]3[C@@H]4CC=C5C[C@@H](O)CC[C@]5(C)[C@H]4CC[C@]13C)C2 [Example 327, (4R)-4-[(1R,3aS,3bS,7S,9aR,9bS,11aR)-7-hydroxy-9a,11a-dimethyl-1H,2H,3H,3aH,3bH,4H,6H,7H,8H,9H,9aH,9bH,10H,11H,11aH-cyclopenta[a]phenanthren-1-yl]-1-{6-acetyl-2,6-diazaspiro[3.4]octan-2-yl}pentan-1-one] | 250 to 1000 nM |
| C[C@H](CCC(=O)N1CC[C@H](Nc2ccncn2)C1)[C@H]1CC[C@H]2[C@@H]3CC=C4C[C@@H](O)CC[C@]4(C)[C@H]3CC[C@]12C [Example 531, (R)-4-((3S,8S,9S,10R,13R,14S,17R)-3-hydroxy-10,13-dimethyl-2,3,4,7,8,9,10,11,12,13,14,15,16,17-tetradecahydro-1H-cyclopenta[a]phenanthren-17-yl)-1-((S)-3-(pyrimidin-4-ylamino)pyrrolidin-1-yl)pentan-1-one] | < 250 nM |
| C[C@H](CCC(=O)N1CCC[C@H](Oc2cnn(C)c2)C1)[C@H]1CC[C@H]2[C@@H]3CC=C4C[C@@H](O)CC[C@]4(C)[C@H]3CC[C@]12C [Example 517, (4R)-4-[(1R,3aS,3bS,7S,9aR,9bS,11aR)-7-hydroxy-9a,11a-dimethyl-1H,2H,3H,3aH,3bH,4H,6H,7H,8H,9H,9aH,9bH,10H,11H,11aH-cyclopenta[a]phenanthren-1-yl]-1-[(3S)-3-[(1-methyl-1H-pyrazol-4-yl)oxy]piperidin-1-yl]pentan-1-one] | < 250 nM |
| C[C@H](CCC(=O)N(C)OCCCC(F)(F)F)[C@H]1CC[C@H]2[C@@H]3CC=C4C[C@@H](O)CC[C@]4(C)[C@H]3CC[C@]12C [Example 32, (R)-4-((3S,8S,9S,10R,13R,14S,17R)-3-hydroxy-10,13-dimethyl-2,3,4,7,8,9,10,11,12,13,14,15,16,17-tetradecahydro-1H-cyclopenta[a]phenanthren-17-yl)-N-methyl-N-(4,4,4-trifluorobutoxy)pentanamide] | 250 to 1000 nM |
| C[C@H](CCC(=O)N(C)Cc1ccccn1)[C@H]1CC[C@H]2[C@@H]3CC=C4C[C@@H](O)CC[C@]4(C)[C@H]3CC[C@]12C [Example 542, (4R)-4-[(1R,3aS,3bS,7S,9aR,9bS,11aR)-7-hydroxy-9a,11a-dimethyl-1H,2H,3H,3aH,3bH,4H,6H,7H,8H,9H,9aH,9bH,10H,11H,11aH-cyclopenta[a]phenanthren-1-yl]-N-methyl-N— [(pyridin-2-yl)methyl]pentanamide] | 250 to 1000 nM |
| CC(=O)N1CC2(C1)CN(C(=O)CC[C@@H](C)[C@H]1CC[C@H]3[C@@H]4CC=C5C[C@@H](O)CC[C@]5(C)[C@H]4CC[C@]13C)C2 [Example 328, (4R)-4-[(1R,3aS,3bS,7S,9aR,9bS,11aR)-7-hydroxy-9a,11a-dimethyl-1H,2H,3H,3aH,3bH,4H,6H,7H,8H,9H,9aH,9bH,10H,11H,11aH-cyclopenta[a]phenanthren-1-yl]-1-{6-acetyl-2,6-diazaspiro[3.3]heptan-2-yl}pentan-1-one] | 250 to 1000 nM |
| CC(=N)N1CCN(C(=O)CC[C@@H](C)[C@H]2CC[C@H]3[C@@H]4CC=C5C[C@@H](O)CC[C@]5(C)[C@H]4CC[C@]23C)CC1 [Example 459, (R)-4-((3S,8S,9S,10R,13R,14S,17R)-3-hydroxy-10,13-dimethyl-2,3,4,7,8,9,10,11,12,13,14,15,16,17-tetradecahydro-1H-cyclopenta[a]phenanthren-17-yl)-1-(4-(1-iminoethyl)piperazin-1-yl)pentan-1-one] | 250 to 1000 nM |
| C[C@H](CCC(=O)N1CCC[C@H](Oc2ccncc2)C1)[C@H]1CC[C@H]2[C@@H]3CC=C4C[C@@H](O)CC[C@]4(C)[C@H]3CC[C@]12C [Example 520, (R)-4-((3S,8S,9S,10R,13R,14S,17R)-3-hydroxy-10,13-dimethyl-2,3,4,7,8,9,10,11,12,13,14,15,16,17-tetradecahydro-1H-cyclopenta[a]phenanthren-17-yl)-1-((S)-3-(pyridin-4-yloxy)piperidin-1-yl)pentan-1-one] | < 250 nM |
